Patent US8822407B2, “Preparation of conjugates comprising adenine derivatives and allergenic proteins and their use for specific immunotherapy of allengenic diseases” (Universita' Degli Studi di Firenze, priority 2010, dated 2014)
Blank lines part the entries; values can stand above or below the molecule they belong to.

Experiments:
purified CD14+ cells = test: Cytokine production by purified CD14+ cells (ELISA of supernatants, 36 hrs); type: cell-based, human
Protocol: Circulating mononuclear cells (MNC) are isolated by density gradient (Ficoll-Hypaque) using buffy coats from 14 normal donors (Servizio Immunotrasfusionale e terapie cellulari, Azienda Ospedaliera Universitaria A. Meyer, Firenze). 200×10^6 MNC are separated by the use of a commercial kit (CD14 isolation kit, Miltenyi) by the addition of 400 μl anti-CD14 monoclonal antibody bound to iron beads followed by isolation on magnetic columns (LS column). 50×10^6 monocytes are recovered by positive selection and are extensively washed with calcium and magnesium-free sterile PBS and then seeded in complete medium plus 10% foetal calf serum in 24 flat bottomed plates at the concentration of 1×10^6/ml. […] The plates are incubated for 36 hrs at 37° C. in 5% CO2 humidified atmosphere and the supernatants are collected after centrifugation at 1200 rpm, aliquoted and then stored at −20° C. up to the assay. […]
(§1) For the determination of cytokines and chemokines of the innate immunity, commercial ELISAs have been used: IL-12p40 (Cytoscreen, Biosource Int, Camarillo, Calif.), IFN-alfa (Cytoscreen), TNF-alfa (Cytoscreen), IL-10 (Pharmingen), IL-6 and CXCL10 (R&D System). 100 μl/well of single supernatants are incubated in flat bottomed plates as specified by the productors and the amounts of the single cytokines are expressed as pg/ml on the basis of a reference curve by using recombinant cytokines.

purified BDCA4+ cells = test: Cytokine production by purified BDCA4+ cells (plasmacytoid dendritic cells), ELISA; type: cell-based, human
Protocol: The preparation of purified BDCA4+ cells has been obtained in a similar way starting from MNC of buffy coats of the same 14 healthy donors. […] By positive selection 5×10^6 plasmacytoid dendritic cells (PDCs) are recovered, extensively washed with calcium and magnesium-free sterile PBS and seeded in complete medium plus 10% foetal calf serum in 24-flat bottomed plates at the concentration 1×10^6/ml. […] The plates are incubated for 36 hrs at 37° C. in 5% CO2 humidified atmosphere and the supernatants are collected after centrifugation at 1200 rpm, aliquoted and then stored at −20° C. up to the assay. […]
as §1

human TLR7 = biological target: T1, human TLR7 (Homo sapiens, UniProt Q9NYK1); test: TLR7 activation, NF-kB luciferase reporter in transfected HEK293 cells; type: cell-based; conditions: human TLR7-encoding plasmid
T1 construct: expressed in transfected cells; host or cells: HEK293 (transient Nucleofection, Amaxa)
T1 sequence (Q9NYK1 27-1049): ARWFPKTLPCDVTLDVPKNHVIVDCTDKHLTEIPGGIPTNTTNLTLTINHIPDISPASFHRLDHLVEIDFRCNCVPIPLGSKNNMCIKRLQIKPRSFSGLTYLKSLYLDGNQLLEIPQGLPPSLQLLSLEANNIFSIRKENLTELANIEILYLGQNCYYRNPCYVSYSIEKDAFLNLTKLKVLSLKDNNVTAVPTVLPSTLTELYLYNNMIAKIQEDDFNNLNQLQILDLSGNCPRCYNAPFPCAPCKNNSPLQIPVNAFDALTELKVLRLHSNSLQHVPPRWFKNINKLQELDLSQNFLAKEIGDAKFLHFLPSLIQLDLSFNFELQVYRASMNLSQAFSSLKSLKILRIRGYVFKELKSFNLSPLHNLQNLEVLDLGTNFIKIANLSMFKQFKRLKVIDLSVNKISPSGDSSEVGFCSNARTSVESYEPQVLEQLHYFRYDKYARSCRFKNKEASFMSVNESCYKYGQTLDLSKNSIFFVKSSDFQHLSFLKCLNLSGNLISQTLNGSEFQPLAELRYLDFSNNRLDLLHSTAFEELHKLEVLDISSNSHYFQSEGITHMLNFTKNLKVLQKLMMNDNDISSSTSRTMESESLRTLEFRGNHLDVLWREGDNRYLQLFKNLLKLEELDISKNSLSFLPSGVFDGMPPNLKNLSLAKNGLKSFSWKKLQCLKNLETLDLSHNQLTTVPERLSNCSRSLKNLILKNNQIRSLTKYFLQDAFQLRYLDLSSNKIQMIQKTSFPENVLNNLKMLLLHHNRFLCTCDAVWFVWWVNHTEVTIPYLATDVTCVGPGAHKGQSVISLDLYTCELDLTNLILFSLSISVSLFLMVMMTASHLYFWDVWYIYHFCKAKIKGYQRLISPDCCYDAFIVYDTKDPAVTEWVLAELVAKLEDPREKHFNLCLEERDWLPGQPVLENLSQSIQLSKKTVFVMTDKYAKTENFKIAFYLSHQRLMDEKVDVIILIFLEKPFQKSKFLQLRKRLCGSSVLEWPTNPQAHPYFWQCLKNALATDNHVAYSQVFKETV
Protocol: HEK293 cells are detached by trypsin from the plastic surface of the culture bottle, extensively washed with calcium and magnesium-free PBS, counted and adjusted at the concentration 1×10^6 cells/tube in polypropylene V-bottomed tubes. After the final wash, the cells are pelleted and 100 μl transfection buffer (Amaxa) is added together with […], TLR7, TLR8 or TLR9-encoding and ELAM-1 promoter NF-kB luciferase reporter plasmids. The mixture thus obtained is transferred in special cuvettes and transient transfection is obtained in a special apparatus which is able to directly introduce genetic material into the nucleus (Nucleofection®, Amaxa GmbH). The cells are then recovered and cultured at 1×10^5/ml in 48-flat bottomed plates in E-MEM medium plus 5% foetal calf serum for 18 hrs. […] Finally the luciferase activity is measured in the cellular lysates by a commercial kit (Promega).

[1] = Table A, Donor #1, dose 0.085 μg/ml
[2] = Table A, Donor #1, dose 0.6 μg/ml
[3] = Table A, Donor #1, dose 2.5 μg/ml
[4] = Table A, Donor #1, dose 10 μg/ml
[5] = Table A, Donor #2, dose 0.085 μg/ml
[6] = Table A, Donor #2, dose 0.6 μg/ml
[7] = Table A, Donor #2, dose 2.5 μg/ml
[8] = Table A, Donor #2, dose 10 μg/ml
[9] = Table C, Donor #1, dose 0.085 μg/ml
[10] = Table C, Donor #1, dose 0.6 μg/ml
[11] = Table C, Donor #1, dose 2.5 μg/ml
[12] = Table C, Donor #1, dose 10 μg/ml
[13] = Table C, Donor #2, dose 0.085 μg/ml
[14] = Table C, Donor #2, dose 0.6 μg/ml
[15] = Table C, Donor #2, dose 2.5 μg/ml
[16] = Table C, Donor #2, dose 10 μg/ml
[17] = Table E, Donor #1, dose 10 μg/ml
[18] = Table E, Donor #2, dose 10 μg/ml
[19] = Table F, Donor #1, dose 10 μg/ml
[20] = Table F, Donor #2, dose 10 μg/ml

TLR7 activation (NF-κB luciferase) in transfected HEK293 cells (human TLR7): completely inactive
Molecule: Nc1nc(SCCCC(=O)ON2C(=O)CCC2=O)nc2c1nc(O)n2Cc1ccccc1 [SA-26E, 4-(6-Amino-9-benzyl-8-hydroxy-9H-purin-2-ylsulfanyl)-butyric acid 2,5-dioxo-pyrrolidin-1-yl ester]
cytokine production from purified CD14+ cells (in words) (purified CD14+ cells; 0.085 μg/ml soluble SA-26E (amount present in Conj-5, -6, -7 and -8)): not able to stimulate the production of any cytokine
IL-6 production (purified CD14+ cells; [1]): 0 pg/mL
IL-10 production (purified CD14+ cells; [1]): 0 pg/mL
IL-12p40 production (purified CD14+ cells; [1]): 0 pg/mL
TNF-alfa production (purified CD14+ cells; [1]): 0 pg/mL
IL-6 production (purified CD14+ cells; [2]): 0 pg/mL
IL-10 production (purified CD14+ cells; [2]): 124 pg/mL
IL-12p40 production (purified CD14+ cells; [2]): 569 pg/mL
TNF-alfa production (purified CD14+ cells; [2]): 345 pg/mL
IL-6 production (purified CD14+ cells; [3]): 11 pg/mL
IL-10 production (purified CD14+ cells; [3]): 618 pg/mL
IL-12p40 production (purified CD14+ cells; [3]): 863 pg/mL
IL-6 production (purified CD14+ cells; [4]): 2930 pg/mL
IL-10 production (purified CD14+ cells; [4]): 609 pg/mL
IL-12p40 production (purified CD14+ cells; [4]): 2500 pg/mL
TNF-alfa production (purified CD14+ cells; [4]): 2123 pg/mL
IL-6 production (purified CD14+ cells; [5]): 0 pg/mL
IL-10 production (purified CD14+ cells; [5]): 0 pg/mL
IL-12p40 production (purified CD14+ cells; [5]): 0 pg/mL
TNF-alfa production (purified CD14+ cells; [5]): 0 pg/mL
IL-6 production (purified CD14+ cells; [6]): 0 pg/mL
IL-10 production (purified CD14+ cells; [6]): 0 pg/mL
IL-12p40 production (purified CD14+ cells; [6]): 785 pg/mL
TNF-alfa production (purified CD14+ cells; [6]): 466 pg/mL
IL-6 production (purified CD14+ cells; [7]): 4 pg/mL
IL-12p40 production (purified CD14+ cells; [7]): 2464 pg/mL
TNF-alfa production (purified CD14+ cells; [7]): 1267 pg/mL
IL-6 production (purified CD14+ cells; [8]): 163 pg/mL
IL-10 production (purified CD14+ cells; [8]): 584 pg/mL
IL-12p40 production (purified CD14+ cells; [8]): 4800 pg/mL
TNF-alfa production (purified CD14+ cells; [8]): 3730 pg/mL
cytokine production from purified CD14+ cells (in words) (purified CD14+ cells; text to Tables A and B): intermediate effect
cytokine production from BDCA4+ cells (in words) (purified BDCA4+ cells; 0.085 μg/ml concentration): completely inactive
IFN-alfa production (purified BDCA4+ cells; [9]): 0 pg/mL
IL-6 production (purified BDCA4+ cells; [9]): 0 pg/mL
TNF-alfa production (purified BDCA4+ cells; [9]): 0 pg/mL
IFN-alfa production (purified BDCA4+ cells; [10]): 179 pg/mL
IL-6 production (purified BDCA4+ cells; [10]): 0 pg/mL
IL-10 production (purified BDCA4+ cells; [10]): 0 pg/mL
TNF-alfa production (purified BDCA4+ cells; [10]): 183 pg/mL
IFN-alfa production (purified BDCA4+ cells; [11]): 179 pg/mL
IL-6 production (purified BDCA4+ cells; [11]): 0 pg/mL
IL-10 production (purified BDCA4+ cells; [11]): 0 pg/mL
TNF-alfa production (purified BDCA4+ cells; [11]): 252 pg/mL
IFN-alfa production (purified BDCA4+ cells; [12]): 486 pg/mL
IL-6 production (purified BDCA4+ cells; [12]): 675 pg/mL
IL-10 production (purified BDCA4+ cells; [12]): 896 pg/mL
TNF-alfa production (purified BDCA4+ cells; [12]): 858 pg/mL
IFN-alfa production (purified BDCA4+ cells; [13]): 0 pg/mL
IL-6 production (purified BDCA4+ cells; [13]): 0 pg/mL
IL-10 production (purified BDCA4+ cells; [13]): 0 pg/mL
TNF-alfa production (purified BDCA4+ cells; [13]): 0 pg/mL
IFN-alfa production (purified BDCA4+ cells; [14]): 669 pg/mL
IL-6 production (purified BDCA4+ cells; [14]): 0 pg/mL
IL-10 production (purified BDCA4+ cells; [14]): 0 pg/mL
TNF-alfa production (purified BDCA4+ cells; [14]): 520 pg/mL
IFN-alfa production (purified BDCA4+ cells; [15]): 2014 pg/mL
IL-6 production (purified BDCA4+ cells; [15]): 760 pg/mL
TNF-alfa production (purified BDCA4+ cells; [15]): 1157 pg/mL
IFN-alfa production (purified BDCA4+ cells; [16]): 3589 pg/mL
IL-6 production (purified BDCA4+ cells; [16]): 1439 pg/mL
IL-10 production (purified BDCA4+ cells; [16]): 750 pg/mL
TNF-alfa production (purified BDCA4+ cells; [16]): 3405 pg/mL
cytokine production from BDCA4+ cells (in words) (purified BDCA4+ cells; text to Tables C and D): intermediate effect

TLR7 activation (NF-κB luciferase) in transfected HEK293 cells (human TLR7): lack any activity
B1: nDer p2: purified natural allergen Der p2, major allergen from the house dust mite Dermatophagoides pteronyssinus (protein, UniProt P49278 18-146, looked up)
Mite group 2 allergen Der p 2: DQVDVKDCANHEIKKVLVPGCHGSEPCIIHRGKPFQLEAVFEANQNTKTAKIEIKASIDGLEVDVPGIDPNACHYMKCPLVKGQQYDIKYTWNVPKIAPKSENVVVTVKVMGDDGVLACAIATHAKIRD
modifications: natural purified
notes: purified natural allergen Der p2, major allergen from the house dust mite Dermatophagoides pteronyssinus
IL-6 production (mean ± SE) (purified CD14+ cells; Table B, dose 10 μg/ml): 0 ± 0 ng/mL
IL-10 production (mean ± SE) (purified CD14+ cells; Table B, dose 10 μg/ml): 0.4 ± 0.4 ng/mL
IL-12p40 production (mean ± SE) (purified CD14+ cells; Table B, dose 10 μg/ml): 0 ± 0 ng/mL
TNF-alfa production (mean ± SE) (purified CD14+ cells; Table B, dose 10 μg/ml): 0.05 ± 0.06 ng/mL
IL-6 production (purified CD14+ cells; [17]): 0 pg/mL
IL-10 production (purified CD14+ cells; [17]): 0 pg/mL
IL-12p40 production (purified CD14+ cells; [17]): 0 pg/mL
TNF-alfa production (purified CD14+ cells; [17]): 218 pg/mL
IL-6 production (purified CD14+ cells; [18]): 0 pg/mL
IL-10 production (purified CD14+ cells; [18]): 0 pg/mL
IL-12p40 production (purified CD14+ cells; [18]): 0 pg/mL
TNF-alfa production (purified CD14+ cells; [18]): 0 pg/mL
cytokine production from purified CD14+ cells (in words) (purified CD14+ cells; text to Tables A and B): essentially unable to induce the production of valuable cytokines
IFN-alfa production (mean ± SE) (purified BDCA4+ cells; Table D, dose 10 μg/ml): 0.07 ± 0.06 ng/mL
IL-6 production (mean ± SE) (purified BDCA4+ cells; Table D, dose 10 μg/ml): 0 ± 0 ng/mL
IL-10 production (mean ± SE) (purified BDCA4+ cells; Table D, dose 10 μg/ml): 0 ± 0 ng/mL
TNF-alfa production (mean ± SE) (purified BDCA4+ cells; Table D, dose 10 μg/ml): 0.03 ± 0.02 ng/mL
IFN-alfa production (purified BDCA4+ cells; [19]): 0 pg/mL
IL-6 production (purified BDCA4+ cells; [19]): 0 pg/mL
IL-10 production (purified BDCA4+ cells; [19]): 0 pg/mL
TNF-alfa production (purified BDCA4+ cells; [19]): 0 pg/mL
IFN-alfa production (purified BDCA4+ cells; [20]): 0 pg/mL
IL-6 production (purified BDCA4+ cells; [20]): 0 pg/mL
IL-10 production (purified BDCA4+ cells; [20]): 0 pg/mL
TNF-alfa production (purified BDCA4+ cells; [20]): 0 pg/mL
